# In patent US11236106B2, “Cycloalkane-1,3-diamine derivative” (Daiichi Sankyo Company, Limited, priority 2018, dated 2022):
# Where a name gives a salt, the structure may show the parent alone. Read-outs that look alike come from different tables or passages of the source.
# Target: T1, menin and MLL (menin, Flag tagged; biotinylated MLL1 peptide 1-46aa) (Homo sapiens, UniProt O00255)
# T1 sequence (O00255 1-610): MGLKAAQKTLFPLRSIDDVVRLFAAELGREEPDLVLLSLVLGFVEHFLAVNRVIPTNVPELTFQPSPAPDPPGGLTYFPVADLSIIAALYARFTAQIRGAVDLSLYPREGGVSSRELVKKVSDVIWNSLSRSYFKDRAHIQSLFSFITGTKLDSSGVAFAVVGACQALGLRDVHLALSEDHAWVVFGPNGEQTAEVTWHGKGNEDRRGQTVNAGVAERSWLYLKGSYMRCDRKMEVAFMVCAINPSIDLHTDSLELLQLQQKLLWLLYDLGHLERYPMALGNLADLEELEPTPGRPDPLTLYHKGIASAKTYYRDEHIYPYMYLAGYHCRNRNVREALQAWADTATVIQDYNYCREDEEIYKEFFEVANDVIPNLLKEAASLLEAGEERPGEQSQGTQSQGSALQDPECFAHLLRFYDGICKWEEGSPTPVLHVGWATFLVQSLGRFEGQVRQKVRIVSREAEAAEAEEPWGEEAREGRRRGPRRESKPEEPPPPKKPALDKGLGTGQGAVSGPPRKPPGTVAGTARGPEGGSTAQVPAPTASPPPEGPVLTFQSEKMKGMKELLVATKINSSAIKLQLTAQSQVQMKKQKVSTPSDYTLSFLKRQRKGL
# Experiment: biochemical
# [1] = cell free IC50 (nM), 1 nM menin, 10 nM biotinylated MLL1 peptide, AlphaLISA
# [2] = IC50, binding inhibitory activity between menin and MLL, AlphaLISA, 1 nM menin, 10 nM biotinylated MLL1 peptide
# Description: Then, the fluorescence signal by AlphaLISA (registered trademark, PerkinElmer Co., Ltd.) was measured using a plate reader (PerkinElmer Co., Ltd., EnVisionXcite).
SMILES,IC50 [1],IC50 [2],also measured
"CN(c1ncnc2sc(CC(F)(F)F)cc12)[C@@H]1CC[C@H](NCc2ccc(S(=O)(=O)N3CCCC(O)C3)cc2)C1 (mixture of isomers) [Example 57, l-[4-({[(1S,3R)-3-{methyl[6-(2,2,2trifluoroethyl)thieno[2,3-d]pyrimidin-4-yl]amino}cyclopentyl]amino}methyl)benzene-1-sulfonyl]piperidin-3-ol hydrochloride (diastereomer mixture)]",61.2 nM,–,–
"COc1cc(-c2ccc(CN[C@H]3C[C@@H](O)[C@@H](N(C)c4ncnc5sc(CC(F)(F)F)cc45)C3)cc2)nnc1N1CCC1 [Example 105, (1R,2S,4R)-4-[({4-[6-(azetidin-1-yl)-5-methoxypyridazin-3-yl]phenyl}methyl)amino]-2-{methyl[6-(2,2,2-trifluoroethyl)thieno[2,3-d]pyrimidin-4-yl]amino}cyclopentan-1-ol hydrochloride]",–,–,IC50: 8 nM
"COc1cc(-c2ccc(CN[C@H]3C[C@@H](O)[C@@H](N(C)c4ncnc5sc(CC(F)(F)F)cc45)C3)cc2)cnc1Cl [Example 65, (1R,2S,4R)-4({[4-(6-chloro-5-methoxypyridin-3-yl)phenyl]methyl}amino)-2{methyl[6-(2,2,2-trifluoroethyl)thieno[2,3-d]pyrimidin-4-yl]amino}cyclopentan-1-ol hydrochloride]",–,2.5 nM,–
"CN(c1ncnc2ccc(CC(F)(F)F)cc12)[C@@H]1CC[C@H](NCc2ccc(O)cc2)C1 [Example 5, 4-({[(1S,3R)-3-{methyl[6-(2,2,2-trifluoroethyl)quinazolin-4-yl]amino}cyclopentyl]amino}methyl)phenol Hydrochloride]",856 nM,–,–
"COc1cc(-c2cnc(OC)c(OC)c2)ccc1CN[C@H]1C[C@@H](O)[C@@H](N(C)c2ncnc3sc(CC(F)(F)F)cc23)C1 [Example 77, (1R,2S,4R)-4-({[4-(5,6-dimethoxypyridin-3-yl)-2-methoxyphenyl]methyl}amino)-2-{methyl[6-(2,2,2-trifluoroethyl)thieno[2,3-d]pyrimidin-4-yl]amino}cyclopentan-1-ol hydrochloride]",–,10.4 nM,–
"CN(c1ncnc2sc(CC(F)(F)F)cc12)[C@@H]1CC[C@H](NCc2ccc(NCc3ccccc3)cc2)C1 [Example 7, (1R,3S)—N^3-{[4-(benzylamino)phenyl]methyl}-N^1-methyl-N^1-[6-(2,2,2-trifluoroethyl)thieno[2,3-d]pyrimidin-4-yl]cyclopentane-1,3-diamine Hydrochloride]",151 nM,–,–
"CN(c1ncnc2sc(CC(F)(F)F)cc12)[C@@H]1CC[C@H](NCc2ccc(S(=O)(=O)N3CCCCCC3)cc2)C1 [Example 59, (1R,3S)-N^3-{[4-(azepane-1-sulfonyl)phenyl]methyl)-N^1methyl-N^1-[6-(2,2,2-trifluoroethyl)thieno[2,3-d]pyrimidin-4-yl]cyclopentane-1,3-diamine hydrochloride]",33 nM,–,–
"FC(F)(F)Cc1cc2c(N[C@@H]3CCC[C@H](NCc4ccc(-c5ncco5)cc4)C3)ncnc2s1 [Example 35, (1S,3R)-N^1-{[4-(1,3-oxazol-2-yl)phenyl]methyl}-N^3-[6-(2,2,2-trifluoroethyl)thieno[2,3-d]pyrimidin-4-yl]cyclohexane-1,3-diamine hydrochloride]",1220 nM,–,–
"COCCOc1nnc(-c2ccc(CN[C@H]3C[C@@H](O)[C@@H](N(C)c4nc(OC)nc5sc(CC(F)(F)F)cc45)C3)cc2)cc1OC [Example 109, (1R,2S,4R)-4-[({4-[5-methoxy-6-(2-methoxyethoxy)pyridazin-3-yl]phenyl}methyl)amino]-2-{[2-methoxy-6-(2,2,2-trifluoroethyl)thieno[2,3-d]pyrimidin-4-yl](methyl)amino}cyclopentan-1-ol hydrochloride]",–,–,IC50: 0.7 nM
"CNc1nc(N(C)[C@H]2C[C@@H](NCc3ccc(-c4cnc(OC)c(OC)c4)cc3)C[C@@H]2OC)c2cc(CC(F)(F)F)sc2n1 [Example 24, N^4-[(1S,2S,4R)-4-({[4-(5,6-dimethoxypyridin-3-yl)phenyl]methyl}amino)-2-methoxycyclopentyl]-N^2,N^4-dimethyl-6-(2,2,2-trifluoroethyl)thieno[2,3-d]pyrimidine-2,4-diamine Hydrochloride]",4.1 nM,–,–
"CN(c1ncnc2sc(CC(F)(F)F)cc12)[C@H]1C[C@@H](NCc2ccc(-c3cncc4ccccc34)cc2)C[C@H]1O [Example 83, (1R,2S,4R)-4-({[4-(isoquinolin-4-yl)phenyl]methyl}amino)-2-{methyl[6-(2,2,2-trifluoroethyl)thieno[2,3-d]pyrimidin-4-yl]amino}cyclopentan-1-ol hydrochloride]",–,4.9 nM,–
"COc1cncc(-c2ccc(CN(C)[C@@H]3C[C@H](O)C[C@H](Nc4ncnc5sc(CC(F)(F)F)cc45)C3)cc2)c1 [Example 16, (1R,3S,5R)-3-[{[4-(5-methoxypyridin-3-yl)phenyl]methyl}(methyl)amino]-5-{[6-(2,2,2-trifluoroethyl)thieno[2,3-d]pyrimidin-4-yl]amino}cyclohexan-1-ol]",1870 nM,–,–
"CNC(=O)c1cccc(-c2ccc(CN[C@H]3CC[C@@H](N(C)c4ncnc5sc(CC(F)(F)F)cc45)C3)cc2)c1 [Example 66, N-methyl-4′-({[|(1S,3R)-3-{methyl[6-(2,2,2-trifluoroethyl)thieno[2,3-d]pyrimidin-4-yl]amino}cyclopentyl]amino}methyl)[1,1′-biphenyl]-3-carboxamide hydrochloride]",–,6.7 nM,–
"CNc1nc(N(C)[C@H]2C[C@@H](NCc3ccc(-c4cccc(S(=O)(=O)N(C)C)c4)cc3)C[C@H]2O)c2cc(CC(F)(F)F)sc2n1 [Example 69, 4′-({[(1R,3R,4S)-3-hydroxy-4-{methyl[2-(methylamino)-6-(2,2,2-trifluoroethyl)thieno[2,3-d]pyrimidin-4-yl]amino}cyclopentyl]amino}methyl)-N,N-dimethyl[1,1′-biphenyl]-3-sulfonamide hydrochloride]",–,2.8 nM,–
"COc1nc(N(C)[C@H]2C[C@@H](NCc3ccc(-c4nnc(OC(F)F)cc4OC)cc3)C[C@H]2O)c2cc(CC(F)(F)F)sc2n1 [Example 110, (1R,2S,4R)-4-[({4-[6-(difluoromethoxy)-4-methoxypyridazin-3-yl]phenyl}methyl)amino]-2-{[2-methoxy-6-(2,2,2-trifluoroethyl)thieno[2,3-d]pyrimidin-4-yl](methyl)amino}cyclopentan-1-ol hydrochloride]",–,2.1 nM,–
"COc1nc(N(C)[C@H]2C[C@@H](NCc3ccc(-c4cnc(C#N)c(OC)c4)cc3)C[C@H]2O)c2cc(CC(F)(F)F)sc2n1 [Example 106, 5-[4-({[(1R,3R,4S)-3-hydroxy-4-{[2-methoxy-6-(2,2,2-trifluoroethyl)thieno[2,3-d]pyrimidin-4-yl](methyl)amino}cyclopentyl]amino}methyl)phenyl]-3-methoxypyridine-2-carbonitrile hydrochloride]",–,0.7 nM,–
"OCCN(c1ncnc2sc(CC(F)(F)F)cc12)[C@@H]1CC[C@H](NCc2ccc(-c3cccnc3)cc2)C1 [Example 42, 2-{[(1R,3S)-3-({[4-(pyridin-3-yl)phenyl]methyl}amino)cyclopentyl][6-(2,2,2-trifluoroethyl)thieno[2,3-d]pyrimidin-4-yl[amino}ethan-1-ol hydrochloride]",105 nM,–,–
"CN(c1ncnc2sc(CC(F)(F)F)cc12)[C@@H]1CC[C@H](NCc2cncs2)C1 [Example 36, (1R,3S)-N^1-methyl-N^3-[(1,3-thiazol-5-yl)methyl]-N^1-[6-(2,2,2-trifluoroethyl)thieno[2,3-d]pyrimidin-4-yl]cyclopentane-1,3-diamine hydrochloride]",636 nM,–,–
"CCN(c1ncnc2sc(CC(F)(F)F)cc12)[C@@H]1CC[C@H](NCc2ccc(-c3cccnc3)cc2)C1 [Example 43, (1R,3S)-N^1-ethyl-N^3-{[4-(pyridin-3-yl)phenyl]methyl}-N^1-[6-(2,2,2 trifluoroethyl)thieno[2,3-d]pyrimidin-4-yl]cyclopentane-1,3-diamine hydrochloride]",76.2 nM,–,–
"COc1cc(-c2ccc(CN[C@H]3C[C@@H](O)[C@@H](N(C)c4ncncc4Oc4ccc(F)cc4-c4ccccc4C(C)C)C3)cc2)nnc1OC [Example 101, (1R,2S,4R)-4-({[4-(5,6-dimethoxypyridazin-3-yl)phenyl]methyl}amino)-2-[(5-{[5-fluoro-2′-(propan-2-yl)[1,1′-biphenyl]-2-yl]oxy}pyrimidin-4-yl)(methyl)amino]cyclopentan-1-ol hydrochloride]",–,2.7 nM,–
"COc1cc(-c2ccc(CN[C@H]3C[C@@H](O)[C@@H](N(C)c4ncnc5sc(CC(F)(F)F)cc45)C3)c(F)c2)cnc1OC [Example 76, (1R,2S,4R)-4-({[4-(5,6-dimethoxypyridin-3-yl)-2-fluorophenyl]methyl}amino)-2-{methyl[6-(2,2,2-trifluoroethyl)thieno[2,3-d]pyrimidin-4-yl]amino}cyclopentan-1-ol hydrochloride]",–,8.6 nM,–
